Test results from publication PMC11062903, “Discovery of potent inhibitors of α-synuclein aggregation using structure-based iterative learning” (Nature Chemical Biology, 2024).
“Also recorded” adds a separate entry of the source. Where two headings read alike, the source gives them in different places.

Assays:
Aβ42 fibrils = target: T1, Aβ42 fibrils (Homo sapiens, UniProt P05067); assay: SPR binding to immobilized Aβ42 fibrils; conditions: pH 8
T1 construct: The recombinant Aβ42 peptide ([…] […] […] […] IA), here called Aβ42; made in house; host or cells: Escherichia coli BL21 Gold (DE3)
T1 sequence (P05067 671-713): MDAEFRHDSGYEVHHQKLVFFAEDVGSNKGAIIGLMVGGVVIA
Protocol: (§1) Solutions of monomeric Aβ42 were prepared by dissolving the lyophilized Aβ42 peptide in 6 M guanidinium hydrocholoride (GuHCl). Monomeric forms were purified from potential oligomeric species and salt using a Superdex 75 10/300 GL column (GE Healthcare) at a flow rate of 0.5 ml min^−1, and were eluted in 20 mM sodium phosphate buffer, pH 8 supplemented with 200 µM EDTA and 0.02% NaN3. The center of the peak was collected and the peptide concentration was determined from the absorbance of the integrated peak area using ε280 = 1,490 l mol^−1 cm^−1. The obtained monomer was diluted with buffer to the desired concentration and supplemented with 20 μM ThT from a 2 mM stock. Each sample was then pipetted into multiple wells of a 96-well half-area, low-binding, clear-bottom and polyethylene glycol-coated plate (Corning 3881), 80 µl per well, in the absence and the presence of different molar-equivalents of small molecules (1% DMSO). Assays were initiated by placing the 96-well plate at 37 °C under quiescent conditions in a plate reader (Fluostar Omega, Fluostar Optima or Fluostar Galaxy, BMGLabtech). The ThT fluorescence was measured through the bottom of the plate using a 440 nm excitation filter and a 480 nm emission filter. Fibrils were extracted directly from wells and used on the day for SPR experiments.
All work was carried out using Biacore T200 at 25 °C. […]

[1] = target: T2, Aβ42 secondary nucleation (Homo sapiens, UniProt P05067); assay: seeded Aβ42 aggregation kinetics (ThT); type: biochemical; conditions: 2 μM Aβ42, 40 nM seed, pH 8
T2 construct: The recombinant Aβ42 peptide ([…] […] […] […] IA), here called Aβ42; made in house; host or cells: Escherichia coli BL21 Gold (DE3)
T2 sequence (P05067 671-713): as above
Protocol: as §1

[2] = target: T3, αS aggregation (surface-catalyzed secondary nucleation) (Homo sapiens, UniProt P37840); assay: light seeded αS aggregation chemical kinetics assay (ThT), secondary nucleation; type: biochemical
T3 construct: made in house; host or cells: E. coli BL21 (DE3)
Protocol: Secondary nucleation is enabled by adding a small amount of preformed fibrils to a monomeric mixture. Aggregation was tracked using the amyloid binding dye, thioflavin T (ThT).
αS was injected into a Superdex 75 10/300 GL column (GE Healthcare) at a flow rate of 0.5 ml min^−1 and eluted in 20 mM sodium phosphate buffer (pH 4.8) supplemented with 1 mM EDTA. The obtained monomer was diluted in buffer to a desired concentration and supplemented with 50 µM ThT and preformed αS fibril seeds. The molecules (or DMSO alone) were then added at the desired concentration to a final DMSO concentration of 1% (v/v). […] The assay was then initiated by placing the microplate at 37 °C under quiescent conditions in a plate reader (FLUOstar Omega, BMG Labtech). The ThT fluorescence was measured through the bottom of the plate with a 440 nm excitation filter and a 480 nm emission filter.
In the presence of low concentrations of seeds (approximately nanomolar), the fibril mass fraction, M(t), over time was described using a generalized logistic function to the normalized aggregation data[9],[70] M(t)/mtot=1−1/1+a/ce^κt^c where mtot denotes the total concentration of αS monomers. The parameters a and c are defined as a=λ^2/2κ^2 c=2/n2(n2+1). […]

αS fibrils = target: T4, αS fibrils (Homo sapiens, UniProt P37840); assay: SPR binding to immobilized αS fibrils; conditions: 1:1 kinetic binding model; for kd / kon: error s.e.m.; for kon: read-out: ka
T4 construct: made in house; host or cells: E. coli BL21 (DE3)
Protocol: All work was carried out using Biacore T200 at 25 °C. CM5 chips were activated by flowing 0.01 M N-hydroxysuccinimide, 0.4 M […] at a flow rate of 10 µl min^−1 for 7 min over two lanes. Preformed αS or Aβ42 fibrils (derived from the endpoints of low seeded aggregation reactions) at a concentration of 1 µM in sodium acetate (10 mM, pH 4.0) were injected onto a single lane in 60 s bursts at 5 µl min^−1 until a response of 2,000 units was reached. […] Different small molecule concentrations were then flowed over both lanes in a pyramidal arrangement in duplicate with blank subtraction (association time 3 min, dissociation time 10 min). The running buffer was sodium phosphate (20 mM, 1 mM EDTA, variable pH) with 1% DMSO. Fitting was carried out on Biacore T200 Evaluation Software, version 3.2, using a 1:1 binding model with the refractive index set to a constant value of 0 response units.

[3] = target: T3, αS aggregation (surface-catalyzed secondary nucleation); parameters: method as in PMID 36374974; conditions: cited from earlier work

| SMILES | binding to Aβ42 fibrils (Aβ42 fibrils) | effect on seeded aggregation of Aβ42 [1] | IC50 ([2]; 1/t1/2 fitted to a Hill slope, 10 µM αS, 25 nM seeds, pH 4.8, 37 °C, read-out: KIC50 (concentration at which t1/2 is increased by 50% with respect to the control)) | Kd (αS fibrils; pH 4.8) | kd (αS fibrils; pH 4.8) | kon (αS fibrils; pH 4.8) | Kd (αS fibrils; pH 8) | kd (αS fibrils; pH 8) | kon (αS fibrils; pH 8) | activity in aggregation assays (docking set) [3] | IC50 ([2]; extrapolated from Hill fit of 1/t1/2, read-out: extrapolated KIC50) |
| --- | --- | --- | --- | --- | --- | --- | --- | --- | --- | --- | --- |
| O=C1NN(c2ccc(F)cc2)C(=O)/C1=C/c1ccc(-c2ccc(Cl)c(C(=O)O)c2)o1 [I4.05] | unable to effectively inhibit Aβ42 secondary nucleation or bind to Aβ42 fibrils; also recorded: nor does it bind effectively to Aβ42 fibrils | unable to effectively inhibit Aβ42 secondary nucleation; also recorded: no effect | 520 nM | 68 nM | 1.315 ± 0.003 × 10^−2 s^−1 | 194000 ± 7e+07 M⁻¹ s⁻¹ | 13 nM | 0.781 ± 0.002 × 10^−2 s^−1 | 588000 ± 2.4e+08 M⁻¹ s⁻¹ | – | – |
| Cc1c(OCc2nnn[nH]2)ccc2c1oc(=O)c1ccccc12 [molecule 48] | – | – | – | – | – | – | – | – | – | active | – |
| O=C1NN(c2ccccc2)C(=O)C1=Cc1coc2ccccc2c1=O [molecule 69] | – | – | – | – | – | – | – | – | – | active | 18200 nM |
